Active and inactive are the calls of the source.
Columns and labels:
[1] = viability of HCT116 lacking mutant beta-catenin – cell-based, human colon tumor, dose response (AID 1045); type: functional;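 further: HCT116 colon tumor cells with beta catenin knocked out; cells exposed to compound for 60 hours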
[2] = viability of PTEN-deleted HCT116 cells – cell-based, HCT116 PTEN knockout, dose response (AID 1047); type: functional;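 further: HCT116 colon tumor cells with PTEN knocked out; cells exposed to compound for 60 hours before readout; potency for loss of cell viability measured by luminescence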
[3] = Trypanosoma cruzi growth suppression in host cells – NIH3T3 host cells, beta-gal luminescence, confirmation (AID 2044); type: functional, cell-based;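 further: intracellular parasites grown in NIH/3T3 mouse fibroblasts as host cells; luminescent beta-galactosidase reporter signal from transgenic T. cruzi replicating inside host cells; inhibitors lower the luminescence signal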
[4] = molecular target: T1, Fatty acid synthase (Homo sapiens, UniProt P49327); assay: inhibition of human FAS-TE enzyme activity – biochemical, kinetic fluorescence intensity, dose response (AID 624326); type: functional;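 further: rate of fluorescence rise from hydrolysis of a fluorogenic O-methyl fluorescein ester substrate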
T1 sequence (P49327 whole entry): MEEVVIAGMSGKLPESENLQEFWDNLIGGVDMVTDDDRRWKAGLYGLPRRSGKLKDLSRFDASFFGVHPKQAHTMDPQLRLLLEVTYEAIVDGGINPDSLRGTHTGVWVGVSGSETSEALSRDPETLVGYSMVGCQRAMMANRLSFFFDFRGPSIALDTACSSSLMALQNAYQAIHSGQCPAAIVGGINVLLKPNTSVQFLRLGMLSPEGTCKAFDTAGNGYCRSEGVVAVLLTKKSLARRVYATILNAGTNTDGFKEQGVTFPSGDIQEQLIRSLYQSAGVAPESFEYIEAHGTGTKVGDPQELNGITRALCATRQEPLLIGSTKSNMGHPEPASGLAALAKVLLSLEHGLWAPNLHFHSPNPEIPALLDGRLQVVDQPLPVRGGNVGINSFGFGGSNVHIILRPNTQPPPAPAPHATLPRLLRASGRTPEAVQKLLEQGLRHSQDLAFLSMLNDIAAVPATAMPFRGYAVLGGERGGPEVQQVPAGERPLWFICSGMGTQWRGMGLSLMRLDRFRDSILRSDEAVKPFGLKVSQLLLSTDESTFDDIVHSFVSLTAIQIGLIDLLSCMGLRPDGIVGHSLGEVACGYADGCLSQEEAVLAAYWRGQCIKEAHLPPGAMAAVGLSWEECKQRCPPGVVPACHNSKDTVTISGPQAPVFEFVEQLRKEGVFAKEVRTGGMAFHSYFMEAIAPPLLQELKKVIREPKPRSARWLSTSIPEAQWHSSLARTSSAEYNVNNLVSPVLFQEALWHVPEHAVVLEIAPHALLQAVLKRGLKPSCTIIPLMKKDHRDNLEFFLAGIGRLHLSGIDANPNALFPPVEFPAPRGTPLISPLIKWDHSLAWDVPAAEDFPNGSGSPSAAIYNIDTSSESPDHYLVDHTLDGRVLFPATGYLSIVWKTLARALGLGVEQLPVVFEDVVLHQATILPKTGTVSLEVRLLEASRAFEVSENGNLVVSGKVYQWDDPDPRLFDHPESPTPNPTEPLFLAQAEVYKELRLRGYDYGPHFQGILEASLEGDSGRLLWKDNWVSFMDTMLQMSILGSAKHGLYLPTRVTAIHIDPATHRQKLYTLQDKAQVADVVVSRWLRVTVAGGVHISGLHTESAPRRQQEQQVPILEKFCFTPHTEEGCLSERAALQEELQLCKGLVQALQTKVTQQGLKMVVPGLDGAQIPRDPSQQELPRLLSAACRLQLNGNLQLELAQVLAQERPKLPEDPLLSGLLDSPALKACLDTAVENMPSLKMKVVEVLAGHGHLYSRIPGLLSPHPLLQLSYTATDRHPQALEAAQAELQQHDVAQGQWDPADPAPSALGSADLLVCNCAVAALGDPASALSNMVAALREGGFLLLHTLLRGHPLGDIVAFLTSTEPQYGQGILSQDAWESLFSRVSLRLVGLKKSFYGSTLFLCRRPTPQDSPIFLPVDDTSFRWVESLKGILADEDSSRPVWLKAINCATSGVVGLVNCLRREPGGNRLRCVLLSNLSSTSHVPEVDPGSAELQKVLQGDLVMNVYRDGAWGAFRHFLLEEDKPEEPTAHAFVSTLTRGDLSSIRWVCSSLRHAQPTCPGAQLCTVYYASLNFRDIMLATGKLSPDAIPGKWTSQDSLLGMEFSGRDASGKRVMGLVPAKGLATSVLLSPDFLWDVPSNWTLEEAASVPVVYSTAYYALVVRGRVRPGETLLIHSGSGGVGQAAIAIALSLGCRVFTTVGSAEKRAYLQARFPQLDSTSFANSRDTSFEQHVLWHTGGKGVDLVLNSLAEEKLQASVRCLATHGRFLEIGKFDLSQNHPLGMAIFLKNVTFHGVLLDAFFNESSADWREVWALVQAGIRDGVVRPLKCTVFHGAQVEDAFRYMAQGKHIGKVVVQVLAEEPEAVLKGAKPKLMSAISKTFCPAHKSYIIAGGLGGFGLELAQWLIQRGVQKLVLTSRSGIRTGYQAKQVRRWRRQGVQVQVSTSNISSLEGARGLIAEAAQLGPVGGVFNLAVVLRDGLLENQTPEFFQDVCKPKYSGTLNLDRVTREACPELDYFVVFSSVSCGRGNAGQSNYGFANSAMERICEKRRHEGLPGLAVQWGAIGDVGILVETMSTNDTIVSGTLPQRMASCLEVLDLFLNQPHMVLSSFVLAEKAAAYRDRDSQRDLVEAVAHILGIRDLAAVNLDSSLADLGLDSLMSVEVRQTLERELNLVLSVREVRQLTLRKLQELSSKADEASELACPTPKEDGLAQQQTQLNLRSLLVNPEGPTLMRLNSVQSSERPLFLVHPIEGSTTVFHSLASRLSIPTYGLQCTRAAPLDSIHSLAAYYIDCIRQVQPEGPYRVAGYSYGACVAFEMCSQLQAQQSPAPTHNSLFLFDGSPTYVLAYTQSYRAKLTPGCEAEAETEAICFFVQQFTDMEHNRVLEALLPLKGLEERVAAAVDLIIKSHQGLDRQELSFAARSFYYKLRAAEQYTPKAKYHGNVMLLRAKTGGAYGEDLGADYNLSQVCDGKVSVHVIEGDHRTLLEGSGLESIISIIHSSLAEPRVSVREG

[5] = molecular target: T2, Corticotropin-releasing factor receptor 2/Corticotropin-releasing factor-binding protein (Homo sapiens, UniProt P24387+Q13324); assay: activators of CRF receptor 2 with binding protein – uHTS hits, confirmation (AID 602473); type: functional; details: read-out: EC50_Mean
T2 sequence (Q13324 whole entry): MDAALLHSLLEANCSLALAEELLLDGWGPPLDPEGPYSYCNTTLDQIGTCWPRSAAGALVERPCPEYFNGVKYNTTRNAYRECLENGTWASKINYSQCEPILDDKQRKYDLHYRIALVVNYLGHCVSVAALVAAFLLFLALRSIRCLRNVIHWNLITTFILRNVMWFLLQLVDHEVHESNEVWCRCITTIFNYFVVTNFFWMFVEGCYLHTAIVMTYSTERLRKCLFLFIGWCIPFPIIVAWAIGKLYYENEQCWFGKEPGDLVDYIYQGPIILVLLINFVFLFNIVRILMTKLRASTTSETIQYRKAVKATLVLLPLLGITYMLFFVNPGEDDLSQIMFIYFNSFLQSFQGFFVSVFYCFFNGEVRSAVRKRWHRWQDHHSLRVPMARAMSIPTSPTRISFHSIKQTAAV
T2 sequence (P24387 whole entry): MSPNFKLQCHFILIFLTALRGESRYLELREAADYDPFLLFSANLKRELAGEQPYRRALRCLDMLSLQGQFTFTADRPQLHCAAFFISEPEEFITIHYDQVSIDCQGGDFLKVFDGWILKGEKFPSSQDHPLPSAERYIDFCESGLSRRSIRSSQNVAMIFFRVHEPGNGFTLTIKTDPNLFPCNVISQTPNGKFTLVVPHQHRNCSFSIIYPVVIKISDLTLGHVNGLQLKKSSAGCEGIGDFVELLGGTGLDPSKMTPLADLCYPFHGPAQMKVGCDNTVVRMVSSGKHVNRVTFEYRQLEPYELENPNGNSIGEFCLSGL

[6] = molecular target: T1, Fatty acid synthase; assay: inhibition of human FAS-TE enzyme activity – biochemical, endpoint fluorescence intensity, uHTS hits, dose response (AID 624327); type: functional;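 further: fluorescence from hydrolysis of an O-methyl fluorescein acyl ester substrate by the enzyme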
[7] = molecular target: T2, Corticotropin-releasing factor receptor 2/Corticotropin-releasing factor-binding protein; assay: Dose Response confirmation of uHTS hits for small molecule antagonists of the CRF-binding protein and CRF-R2 receptor complex.; type: functional; details: read-out: IC50_Mean
[8] = NIH3T3 cell viability loss – ATP luminescence, mouse fibroblasts, counter-screen, dose response (AID 2010); type: functional, cell-based;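 further: cells exposed to compound for about 90 hours before reading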
[9] = microbe, parasite or virus in culture; type: functional; details: Mycobacterium tuberculosis
[10] = molecular target: T3, Zinc finger protein mex-5 (Caenorhabditis elegans, UniProt Q9XUB2); assay: potency of MEX-5 RNA-binding blockers – biochemical, C. elegans, fluorescence polarization, dose response (AID 1960)
T3 sequence (Q9XUB2 whole entry): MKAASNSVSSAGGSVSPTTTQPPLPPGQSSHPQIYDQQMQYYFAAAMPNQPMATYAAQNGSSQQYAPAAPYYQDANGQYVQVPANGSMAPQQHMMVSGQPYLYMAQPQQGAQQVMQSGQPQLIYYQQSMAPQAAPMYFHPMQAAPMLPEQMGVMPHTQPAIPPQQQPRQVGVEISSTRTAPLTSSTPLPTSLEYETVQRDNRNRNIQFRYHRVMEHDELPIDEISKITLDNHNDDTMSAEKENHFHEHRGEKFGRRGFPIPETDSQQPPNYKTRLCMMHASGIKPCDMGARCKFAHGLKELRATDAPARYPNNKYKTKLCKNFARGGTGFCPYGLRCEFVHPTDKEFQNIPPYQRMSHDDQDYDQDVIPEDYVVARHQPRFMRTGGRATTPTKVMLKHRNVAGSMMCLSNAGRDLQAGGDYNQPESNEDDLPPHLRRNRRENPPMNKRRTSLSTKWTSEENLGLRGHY

[11] = molecular target: T4, RNA-binding protein pos-1 (Caenorhabditis elegans, UniProt G5EF15); assay: disruptors of C. elegans POS-1 RNA interaction – biochemical, fluorescence polarization, dose response (AID 1964);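 further: purified POS-1 fused to maltose binding protein made in E. coli; potency of compounds blocking POS-1 binding to fluorescent RNA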
T4 sequence (G5EF15 whole entry): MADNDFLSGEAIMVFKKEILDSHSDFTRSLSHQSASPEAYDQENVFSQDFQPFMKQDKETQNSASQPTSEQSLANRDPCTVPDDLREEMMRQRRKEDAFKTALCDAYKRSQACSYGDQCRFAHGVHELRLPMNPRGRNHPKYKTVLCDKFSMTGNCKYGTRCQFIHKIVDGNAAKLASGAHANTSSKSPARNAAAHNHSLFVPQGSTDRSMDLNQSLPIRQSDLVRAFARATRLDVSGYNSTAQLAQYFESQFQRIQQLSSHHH

[12] = alpha-synuclein stem-loop luciferase translation blockers – H4 neuroglioma cells, luminescence, confirmation (AID 1988); type: functional, cell-based
[13] = molecular target: T5, Heat shock factor protein 1 (Mus musculus, UniProt P38532); assay: decrease of HSF1-responsive luciferase luminescence – cell-based, NIH3T3, dose retest, confirmation (AID 2382); type: functional;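 further: NIH3T3 fibroblasts with HSF1-driven luciferase reporter stressed by proteasome inhibitor MG132; luminescence from HSF1-driven luciferase expression after 8 hours of MG132 stress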
T5 sequence (P38532 whole entry): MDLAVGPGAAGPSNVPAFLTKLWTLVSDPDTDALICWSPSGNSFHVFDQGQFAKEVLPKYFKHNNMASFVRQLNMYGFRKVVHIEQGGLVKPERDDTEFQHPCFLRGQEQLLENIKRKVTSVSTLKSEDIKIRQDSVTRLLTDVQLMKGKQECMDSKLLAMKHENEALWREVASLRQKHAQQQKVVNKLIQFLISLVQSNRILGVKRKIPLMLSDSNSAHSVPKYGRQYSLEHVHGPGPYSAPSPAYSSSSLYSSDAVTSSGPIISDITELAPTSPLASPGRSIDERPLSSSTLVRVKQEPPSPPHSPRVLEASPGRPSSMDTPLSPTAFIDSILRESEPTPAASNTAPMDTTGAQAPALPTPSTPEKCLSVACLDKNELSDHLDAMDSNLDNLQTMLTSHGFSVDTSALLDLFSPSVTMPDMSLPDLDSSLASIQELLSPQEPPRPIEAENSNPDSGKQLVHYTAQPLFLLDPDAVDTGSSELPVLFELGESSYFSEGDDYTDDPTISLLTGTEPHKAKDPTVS

[14] = Luminescence Cell-Based Dose Response HTS to Identify Inhibitors of 5'UTR Stem-Loop Driven Prion Protein mRNA Translation in H4 Neuroglioblastoma Cells. [Related pubchem assays: 1827 (Project Summary), 1813 (Primary HTS)]; type: functional
[15] = molecular target: Cytochrome P450 2D6 (Homo sapiens, UniProt P10635);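 further: CYP2D6 member of a cytochrome P450 panel assay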
Sequence of Cytochrome P450 2D6 (P10635 whole entry): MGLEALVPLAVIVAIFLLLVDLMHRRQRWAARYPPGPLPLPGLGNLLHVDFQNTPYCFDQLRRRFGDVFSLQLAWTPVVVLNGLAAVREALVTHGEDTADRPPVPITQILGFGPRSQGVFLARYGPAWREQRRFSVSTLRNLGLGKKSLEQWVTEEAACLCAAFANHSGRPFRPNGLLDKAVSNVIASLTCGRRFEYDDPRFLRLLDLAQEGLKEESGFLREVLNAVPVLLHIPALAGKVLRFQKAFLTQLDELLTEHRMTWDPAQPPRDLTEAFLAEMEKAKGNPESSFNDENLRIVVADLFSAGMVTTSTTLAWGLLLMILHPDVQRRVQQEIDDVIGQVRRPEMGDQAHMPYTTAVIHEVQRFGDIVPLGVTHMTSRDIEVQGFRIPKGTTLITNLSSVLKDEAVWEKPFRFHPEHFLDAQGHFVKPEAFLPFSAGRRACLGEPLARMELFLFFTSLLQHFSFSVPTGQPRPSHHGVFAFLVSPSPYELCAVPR

[16] = test system: INS1; assay: INS-1E survival protection against cytokine death – cell-based, luminescence, retest, dose response (AID 449756); type: functional; details: Rattus norvegicus;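 further: cell death triggered by IL-1 beta plus TNF-alpha plus IFN-gamma mixture; protective hits raise ATP signal compared with cytokine alone wells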
[17] = viability of uninfected HEp-2 cells – cell-based, HTS, cytotoxicity control for RSV inhibitor project, dose response (AID 2410); type: functional; details: human respiratory syncytial virus

## O=C(CNc1cccc2ccccc12)N/N=C/C(Br)=C/c1ccccc1
[1]
  EC50: 25.8 µM (active)
[2]
  EC50: 22.9 µM (active)

## NC(=S)N/N=C/c1ccc(-c2ccc(SC(F)F)cc2)o1
[3]
  EC50: 0.895 µM (active)
[4]
  IC50: 80 µM (inactive)
[5]
  EC50: > 53 µM (inactive)
[6]
  IC50: 16.9 µM (active)
[7]
  IC50: > 47.1 µM (inactive)
[8]
  EC50: 12.7 µM (active)

## Cc1ccn2c(=O)nc(SCC(=O)N3N=C(c4cccs4)CC3c3ccc(F)cc3)nc2c1 (configuration not stated)
[3]
  EC50: 1.35 µM (active)
[4]
  IC50: 10.3 µM (active)
[6]
  IC50: 13.9 µM (active)
[8]
  EC50: > 60 µM (not active)

## COc1ccc(-c2csc(NC(C)c3nc4cc(Cl)c(N5CCCCC5)cc4n3CCCO)n2)cc1 (configuration not stated)
[9]
  CC50: > 40 µM (active)

## CCCCNC(=O)C1CC(c2c(Cl)cccc2Cl)=NO1 (configuration not stated)
[1]
  EC50: 29.6 µM (active)
[2]
  EC50: 21.8 µM (active)

## CC1CCCC(C)N1/N=C/c1c[nH]c2ccc(Br)cc12 (configuration not stated)
[9]
  CC50: 24.4 µM (active)

## COc1ccc(C(=O)Nc2nc(-c3ccc([N+](=O)[O-])cc3)c(-c3ccccc3)s2)cc1
[10]
  EC50: > 300 µM (not active)
[11]
  EC50: > 300 µM (not active)

## O=C(CC1C[C@H](C(=O)N2CCOCC2)[C@@]2(CCC3CCCC3)c3[nH]c4ccccc4c3CCN2C1=O)NCCN1CCOCC1 (some centres not stated)
[4]
  IC50: 2.17 µM (active)
[6]
  IC50: 2.6 µM (active)

## O=C(c1cc2cc3ccc(Cl)cc3nc2o1)N1CCCCCC1
[4]
  IC50: 15.6 µM (active)
[6]
  IC50: 18.7 µM (active)

## O=[N+]([O-])c1ccccc1-c1cc(-c2cc(Cl)ccc2O)n[nH]1
[1]
  EC50: 27 µM (active)
[2]
  EC50: 19.5 µM (active)

## c1ccc(-c2cn3nc(-c4ccccc4)sc3n2)cc1
[12]
  EC50: 402 nM (inconclusive)
[13]
  EC50: < 160 nM (active)
[14]
  EC50: 0.583 µM (active)

## Fc1ccc(-n2c(Cc3ccccc3)nnc2SCc2nc(-c3ccc(Cl)cc3)no2)cc1
[4]
  IC50: 8.88 µM (active)
[6]
  IC50: 14 µM (active)

## O=C(COC(=O)c1[nH]nc2ccccc12)NC(=O)NC12CC3CC(CC(C3)C1)C2
[1]
  EC50: 22.1 µM (active)
[2]
  EC50: 14.8 µM (active)

## CN(C)c1ccc(-c2noc(-c3ccccc3O)n2)cc1
[14]
  EC50: 10.5 µM (inconclusive)

## Cc1cc(C)c(Cn2cnc(-c3ccc([N+](=O)[O-])cc3)c2)c(C)c1
[15]
  AC50: 28.2 µM (inconclusive)
[4]
  IC50: 12.6 µM (active)
[6]
  IC50: 12.9 µM (active)

## Nc1c(C(=O)Nc2ccc(S(=O)(=O)N3CCCC3)cc2)sc2nc3cc4c(cc3cc12)CCC4
[1]
  EC50: 4.81 µM (active)
[16]
  AC50: 3.29 µM (active)
[17]
  CC50: 27.9 µM (active)
[2]
  EC50: 4.9 µM (active)

## CC1=C(C#N)C(=O)N(C)C(=O)/C1=C\N
[10]
  EC50: > 300 µM (not active)
[11]
  EC50: > 300 µM (not active)

## CC(Cc1cccs1)NC(=O)Nc1ccc(Cl)c(Cl)c1 (configuration not stated)
[1]
  EC50: 22.6 µM (active)
[2]
  EC50: 17.4 µM (active)

## COc1ccc(C2C(C#N)=C(N)OC3=C2C(=O)CC(C)(C)C3)c(OC)c1OC (configuration not stated)
[10]
  EC50: > 300 µM (not active)
[11]
  EC50: > 300 µM (not active)

## CCN(CC)S(=O)(=O)c1ccc(N2CCc3ccccc3C2)nc1
[4]
  IC50: 9.71 µM (active)
[6]
  IC50: 4.19 µM (active)

## CC(C)(C)c1nc(SCC(=O)Nc2nc3c(s2)CCCC3)c2ccccc2n1
[3]
  EC50: 1.45 µM (active)
[9]
  CC50: 38.7 µM (active)
[8]
  EC50: 12.5 µM (active)

## Cc1c(C)c2ccc(OCC(=O)N3CCN(c4ccccc4)CC3)cc2oc1=O
[4]
  IC50: 6.95 µM (active)
[6]
  IC50: 5.34 µM (active)

## O=C(Cc1ccc([N+](=O)[O-])cc1)Nc1cc(C(F)(F)F)cc(C(F)(F)F)c1
[3]
  EC50: 2.18 µM (active)
[9]
  CC50: 8.99 µM (active)
[8]
  EC50: 7.77 µM (active)

## O=C(/C=C/c1cccc([N+](=O)[O-])c1)NCCc1ccc(F)cc1
[4]
  IC50: 11.8 µM (active)
[6]
  IC50: 10.7 µM (active)

## COC1=CC(=O)c2ccccc2C1=O [2-Methoxy-1,4-naphthoquinone]
[9]
  CC50: 12.7 µM (active)

## C=CCN=C(S)N1CCN(c2cccc(C(F)(F)F)c2)CC1
[10]
  EC50: > 300 µM (not active)
[11]
  EC50: > 300 µM (not active)

## CCc1ccc2oc(-c3cc(/N=C/c4cccc(OC)c4O)ccc3O)nc2c1
[3]
  EC50: 2.45 µM (active)
[9]
  CC50: > 40 µM (active)
[8]
  EC50: > 30 µM (not active)

## Cc1noc(C)c1NC(=O)Nc1cccc2c1O[C@H](CN(C)C(=O)Nc1ccccc1)[C@@H](C)CN([C@H](C)CO)C2=O
[4]
  IC50: 9.53 µM (active)
[6]
  IC50: 13 µM (active)

## Cc1ccc(OCC(=O)Nc2ccc(O)c(-c3nc4ccccc4o3)c2)cc1
[1]
  EC50: 32.7 µM (active)
[2]
  EC50: 26.8 µM (active)
